We go through four molecules from patent US11247976B2, “Synthetic ligands that modulate the activity of the RhlR quorum sensing receptor” (Wisconsin Alumni Research Foundation, priority 2016, dated 2022).

The term EC50 denotes the concentration needed to bring the measured effect to its halfway point. A word on the half-life: it is the time in which the quantity being followed falls by half.

Structures are written as SMILES. Entries after “also recorded” stand apart in the source; their conditions may differ. Marks after values point to notes of the source that are not given here. A value given as a limit tells only on which side of the number the result lay.

Data set [1] has as its target T1, LasR (Pseudomonas aeruginosa, UniProt P25084).
T1 construct: expressed in transfected cells; host or cells: E. coli JLD271 (ΔsdiA) with pJN105L and pSC11
In words: Selectivity of RhlR agonism over LasR agonism (E. coli LasR reporter JLD271/pJN105L/pSC11). Format: cell-based, P. aeruginosa. To be noted: RhlR % activity divided by LasR % activity, > = negligible activity in LasR reporter. On the procedure: (§1) All media and reagents for bacterial culture were purchased from commercial sources. Bacteria were cultured in Luria-Bertani broth (LB) at 37° C. with shaking at 200 rpm unless otherwise noted. The bacterial reporter strains used for this study were (i) the heterologous E. coli strain JLD271 (ΔsdiA) harboring the RhlR expression plasmid pJN105R2 and the rhlI-lacZ transcriptional fusion reporter pSC11-rhlI*, (ii) the heterologous E. coli strain JLD271 (ΔsdiA) harboring the LasR expression plasmid pJN105L and the […] transcriptional fusion reporter pSC11, and (iii) the P. aeruginosa strain PAO-JP2 (ΔlasrhlI) harboring the rhlI-gfp transcriptional fusion reporter prhlI-LVAgfp. Reporter strains JLD271/pJN105R2/pSC11-rhlI* and JLD271/pJN105L/pSC11 were grown in LB containing 100 μg/mL ampicillin and 10 μg/mL gentamicin. Freezer stocks of bacterial strains were maintained at −80° C. in 1:1 LB:50% glycerol.
To evaluate the modulatory activities of library compounds on RhlR and LasR using E. coli reporters, the strains JLD271/pJN105R2/pSC11-rhlI* and JLD271/pJN105L/pSC11 were used, respectively, as previously described.^38, 51 The following modifications were used in the RhlR agonism reporter assay, non-native compounds (10 μM or 1 mM) were compared to 1 mM BHL as the positive control. Briefly, a subculture was prepared by diluting an overnight culture 1:10 with fresh media containing 100 μg/mL ampicillin and 10 μg/mL gentamicin, and was incubated until it had grown to OD600=0.45. In all assays, L-arabinose was added to a final concentration of 4 mg/mL to induce RhlR expression. For RhlR agonism assays, activities of test compounds were measured relative to 1 mM BHL (the concentration required to induce a maximal level of RhlR activity). For RhlR antagonism assays, test compounds were competed against a concentration of BHL approximately equal to its EC50 value (10 μM). Activity was measured relative to 10 μM BHL. Inhibition was calculated by subtracting 100% from the relative activity value. Thus, 0% inhibition mimics represents no competitive displacement of 10 μM BHL by a test compound. In all assays, modifications were made to the standard Miller assay protocol to accommodate the use of the chlorophenol red-β-D-galactopyranoside (CPRG) β-galactosidase substrate. After cell lysis, 150 μL of the aqueous layer was transferred from each well of a solvent-resistant 96-well microtiter plate to the wells of a new clear, flat-bottom 96-well microtiter plate. CPRG (4 mg/mL in phosphate-buffered saline) was added to each well in 25 μL volumes. Plates were incubated at 30° C. until the positive control wells developed a red color (approximately 30 min). The amount of processed CPRG substrate was assessed by measuring the absorbance of each well at 570 nm. Enzymatic activity was calculated using the following equation: adjusted Miller units=1000·Abs570/(OD600·t·V),
LasR assays were processed using the protocol for the substrate ortho-nitrophenyl-β-galactoside (ONPG) as previously described elsewhere.^53; and LasR antagonism assays were performed versus the EC50 for OdDHL (2 nM).
The selectivity of certain compounds for RhlR over LasR was measured using a LasR reporter strain (details above). Table 6 provides a comparison of selectivity of RhlR agonism over LasR agonism for exemplary compounds. Table 7 provides a comparison of selectivity of RhlR antagonism over LasR antagonism for exemplary compounds.

The next data set addresses T2, RhlR (Pseudomonas aeruginosa, UniProt P54292).
T2 construct: expressed in transfected cells; host or cells: E. coli JLD271 (ΔsdiA) with pJN105R2 (arabinose-induced) and pSC11-rhlI*
In words: E. coli RhlR reporter agonism assay (JLD271/pJN105R2/pSC11-rhlI*). The conditions noted are these: for activation at 10 µM: compound at 10 μM, RhlR activity relative to 1 mM BHL; for Emax: read-out: Maximum Activation (%). Format: cell-based, P. aeruginosa.

Data set [2] can be described thus: Hydrolytic stability in buffers of varying pH by HPLC. The class given is physicochemical. To be noted: room temperature. On the procedure:
To assess the relative stability of the thiolactone and homoserine lactone moieties, stability studies were performed as reported previously,^53 with the following changes. Compounds RN22 and E22 (50 μM) were dissolved in either 1 mM 2-(N-morpholino)-ethanesulfonic acid (MES) buffer at pH 6, or 1 mM tris(hydroxymethyl)-aminomethane (TRIS) buffer at pH 7, pH 8, or pH 9. Solutions were placed static at room temperature, and 150 μL aliquots were taken every two hours for eight hours, then again at 24 hours. Samples were immediately separated via HPLC, and the area under the curve (AUC) at 220 nm was calculated and compared to the area at t=0. […] Degradation of both compounds to the hydrolysis product was confirmed via mass spectrometry of the resulting byproduct peak.
P. aeruginosa media is observed to become more alkaline over time, making the hydrolytic instability of the homoserine lactone head group a concern in developing AHL-type modulators for use in the wild-type organism. […] To evaluate their stability in a more direct assay, the stability of thiolactone RN22 relative to its lactone homolog E22 was monitored over time and at varying pH values using HPLC. The amount of compound RN22 remaining over 24 h was compared to E22. […] Degradation products were confirmed to be the hydrolyzed lactone head groups via mass spectroscopy.

For data set [3], the target named is T1, LasR. In words: Selectivity of RhlR antagonism over LasR antagonism (E. coli LasR reporter, vs 2 nM OdDHL). To be noted: RhlR % antagonism divided by LasR % antagonism. Format: cell-based, P. aeruginosa. On the procedure: as §1, with “Reporter strains JLD271/pJN105R2/pSC11-rhlI* and JLD271/pJN105L/pSC11 were grown in LB containing 100 μg/mL ampicillin and 10 μg/mL gentamicin. Freezer stocks of bacterial strains were maintained at −80° C. in 1:1 LB:50% glycerol.” left out
To evaluate the modulatory activities of library compounds on RhlR and LasR using E. coli reporters, the strains JLD271/pJN105R2/pSC11-rhlI* and JLD271/pJN105L/pSC11 were used, respectively, as previously described.^38, 51 The following modifications were used in the RhlR agonism reporter assay, non-native compounds (10 μM or 1 mM) were compared to 1 mM BHL as the positive control. […] For RhlR agonism assays, activities of test compounds were measured relative to 1 mM BHL (the concentration required to induce a maximal level of RhlR activity). […] Activity was measured relative to 10 μM BHL. Inhibition was calculated by subtracting 100% from the relative activity value. […]

T1 sequence (P25084 whole entry): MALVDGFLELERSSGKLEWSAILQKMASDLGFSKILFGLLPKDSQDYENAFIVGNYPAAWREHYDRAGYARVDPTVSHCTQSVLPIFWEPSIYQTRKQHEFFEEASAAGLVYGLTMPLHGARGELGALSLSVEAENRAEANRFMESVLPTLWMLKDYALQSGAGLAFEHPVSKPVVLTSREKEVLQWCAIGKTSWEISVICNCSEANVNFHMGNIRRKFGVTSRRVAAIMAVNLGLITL
T2 sequence (P54292 whole entry): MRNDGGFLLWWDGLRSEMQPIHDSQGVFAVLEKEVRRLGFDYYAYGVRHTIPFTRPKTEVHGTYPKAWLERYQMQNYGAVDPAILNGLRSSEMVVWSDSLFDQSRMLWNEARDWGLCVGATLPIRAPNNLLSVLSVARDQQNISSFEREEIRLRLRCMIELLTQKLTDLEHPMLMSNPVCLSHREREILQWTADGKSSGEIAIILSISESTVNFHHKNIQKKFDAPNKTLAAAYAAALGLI

In the case of `O=C(N[C@H]1CCCC1=O)C1CCC1` [RN12], the entries for the “Fold selectivity of RhlR agonists over LasR agonism” value (from here on “Fold selectivity of RhlR agonists”) on LasR [1] (tested concentration 1 mM) and on LasR [1] (tested concentration 10 μm) were 6.8 fold and >56^b fold, respectively. On RhlR, the EC50 was 5.94 µM. On RhlR (E. coli reporter), this molecule returned an activation at 10 µM of over 50%. In addition, the Emax at RhlR is 93%.

Regarding `O=C(COc1ccc(I)cc1)N[C@H]1CCSC1=O` [RN22], the half-life at 50 μM in data set [2] (pH 6, 1 mM MES buffer) was 44 days; in data set [2] (pH 7, 1 mM TRIS buffer) it was 47.2 days; in data set [2] (pH 8, 1 mM TRIS buffer), 9.88 days; in data set [2] (pH 9, 1 mM TRIS buffer), 2.18 days. In addition, the “Fold selectivity of RhlR antagonist over LasR antagonism” value at LasR [3] (tested concentration 1 mM) was determined as 74 fold; at LasR [3] (tested concentration 10 μm), 1.5 fold. Further, the activation at 10 µM on RhlR (E. coli reporter) turned out to be 1%.

Consider `CC(C)CC(=O)N[C@H]1CCCC1=O` [RN36], for which, at LasR [1] (tested concentration 1 mM), the “Fold selectivity of RhlR agonists” value is >84^b fold. The “Fold selectivity of RhlR agonists” value at LasR [1] (tested concentration 10 μm) is reported as 105^ fold. For the same molecule, on RhlR, the EC50 stood at 7.58 µM and the Emax amounted to 101%. The activation at 10 µM on RhlR (E. coli reporter) was over 50%.

In the case of `CC(C)CC(=O)N[C@H]1CCSC1=O` [RN37], the “Fold selectivity of RhlR agonists” value is 13 fold at LasR [1] (tested concentration 1 mM) and >85^b fold on LasR [1] (tested concentration 10 μm). This molecule displayed an EC50 at RhlR of 0.463 µM. For the same molecule, on RhlR (dose-response, E. coli reporter), the “RhlR agonist potency in words” value is on record as “improves potency two-fold over the homoserine lactone variant; also recorded: most potent RhlR agonist found in the E. coli reporter”. For the same molecule, the Emax at RhlR worked out at 93%.
